What was measured:
[1] = xn = mol fraction of the nth substance listed; settings: 100 kPa, Liquid; for viscosity: Capillary tube (Ostwald / Ubbelohde) method; for mass density: Vibrating tube method
[2] = refractive index (Na D-line) (dimensionless); xn = mol fraction of the nth substance listed; settings: 100 kPa, Liquid, Standard Abbe refractometry

C1CC[C@H]2CCCC[C@@H]2C1 [trans-decahydronaphthalene] + CCCCCCCCC
Settings	mass density, [1] [kg/m3]	refractive index, [2]	viscosity, [1] [mPa·s]
293.15 K, x1 = 0.1036	732.72	–	0.772
293.15 K, x1 = 0.2018	746.84	–	0.836
293.15 K, x1 = 0.3016	761.45	–	0.912
293.15 K, x1 = 0.4042	776.68	–	1.004
293.15 K, x1 = 0.4954	790.42	–	1.109
293.15 K, x1 = 0.6009	806.55	–	1.253
293.15 K, x1 = 0.6984	821.69	–	1.409
293.15 K, x1 = 0.8001	837.66	–	1.635
293.15 K, x1 = 0.8933	852.53	–	1.864
293.15 K, x1 = 1	869.78	–	2.112
298.15 K, x1 = 0.1036	728.87	1.4084	0.725
298.15 K, x1 = 0.2018	743	1.4146	0.781
298.15 K, x1 = 0.3016	757.63	1.4205	0.849
298.15 K, x1 = 0.4042	772.88	1.4273	0.934
298.15 K, x1 = 0.4954	786.63	1.4326	1.028
298.15 K, x1 = 0.6009	802.78	1.4397	1.154
298.15 K, x1 = 0.6984	817.94	1.4459	1.305
298.15 K, x1 = 0.8001	833.93	1.4526	1.505
298.15 K, x1 = 0.8933	848.8	1.4591	1.701
298.15 K, x1 = 1	866.07	1.4662	1.925
303.15 K, x1 = 0.1036	724.99	–	0.681
303.15 K, x1 = 0.2018	739.14	–	0.732
303.15 K, x1 = 0.3016	753.79	–	0.795
303.15 K, x1 = 0.4042	769.06	–	0.871
303.15 K, x1 = 0.4954	782.83	–	0.957
303.15 K, x1 = 0.6009	798.99	–	1.075
303.15 K, x1 = 0.6984	814.17	–	1.213
303.15 K, x1 = 0.8001	830.18	–	1.393
303.15 K, x1 = 0.8933	845.07	–	1.568
303.15 K, x1 = 1	862.34	–	1.769
308.15 K, x1 = 0.1036	721.09	1.4038	0.642
308.15 K, x1 = 0.2018	735.26	1.4105	0.688
308.15 K, x1 = 0.3016	749.94	1.4163	0.746
308.15 K, x1 = 0.4042	765.23	1.423	0.816
308.15 K, x1 = 0.4954	779.01	1.4286	0.893
308.15 K, x1 = 0.6009	795.19	1.435	0.998
308.15 K, x1 = 0.6984	810.39	1.4418	1.127
308.15 K, x1 = 0.8001	826.41	1.4486	1.29
308.15 K, x1 = 0.8933	841.33	1.455	1.447
308.15 K, x1 = 1	858.61	1.4618	1.628
313.15 K, x1 = 0.1036	717.18	–	0.607
313.15 K, x1 = 0.2018	731.37	–	0.65
313.15 K, x1 = 0.3016	746.07	–	0.704
313.15 K, x1 = 0.4042	761.38	–	0.766
313.15 K, x1 = 0.4954	775.18	–	0.838
313.15 K, x1 = 0.6009	791.38	–	0.929
313.15 K, x1 = 0.6984	806.6	–	1.052
313.15 K, x1 = 0.8001	822.64	–	1.202
313.15 K, x1 = 0.8933	837.57	–	1.334
313.15 K, x1 = 1	854.88	–	1.505
318.15 K, x1 = 0.1036	713.25	1.3993	0.576
318.15 K, x1 = 0.2018	727.46	1.406	0.614
318.15 K, x1 = 0.3016	742.18	1.4122	0.663
318.15 K, x1 = 0.4042	757.52	1.4187	0.723
318.15 K, x1 = 0.4954	771.34	1.4249	0.786
318.15 K, x1 = 0.6009	787.56	1.4312	0.869
318.15 K, x1 = 0.6984	802.8	1.4379	0.984
318.15 K, x1 = 0.8001	818.86	1.4445	1.118
318.15 K, x1 = 0.8933	833.81	1.4509	1.241
318.15 K, x1 = 1	851.14	1.4581	1.394
323.15 K, x1 = 0.1036	709.3	–	0.547
323.15 K, x1 = 0.2018	723.54	–	0.583
323.15 K, x1 = 0.3016	738.28	–	0.627
323.15 K, x1 = 0.4042	753.64	–	0.682
323.15 K, x1 = 0.4954	767.48	–	0.742
323.15 K, x1 = 0.6009	783.73	–	0.821
323.15 K, x1 = 0.6984	798.99	–	0.922
323.15 K, x1 = 0.8001	815.08	–	1.041
323.15 K, x1 = 0.8933	830.05	–	1.156
323.15 K, x1 = 1	847.4	–	1.295
